Here are results for one compound from PMC6874683, “Pyrrothiogatain acts as an inhibitor of GATA family proteins and inhibits Th2 cell differentiation in vitro” (Scientific Reports, 2019).

In the assay the test system is Th2 cell differentiation. The experiment in a line: Intracellular cytokine staining, naive CD4+ T cells under Th2 conditions. Format: cell-based, mouse. Particulars: 30 and 80 µM, 5 days. The procedure:
C57BL/6 mice were purchased from Clea (Clea Japan, Inc., Tokyo, Japan). Total CD4^+ T cells isolated from mouse spleen were prepared using a FITC anti-mouse CD4 antibody (Cat#100510, RM4–5, BioLegend) and anti-FITC-microbeads (Cat#130-097-050, Miltenyi Biotec). Naive CD4^+ T cells (CD44^low, CD62L^high) were prepared using a MojoSort Mouse CD4 T cell Isolation Kit (Cat#480033), BioLegend). Biotinylated anti-CD44 (Cat#103004, IM7) and anti-CD25 antibodies (Cat#102004, PC61) were purchased from BioLegend. CD4^+ T cells (7.5 × 10^5) were stimulated using immobilized anti-TCR-β mAb (3 µg/mL, H57–597, BioLegend) plus an anti-CD28 mAb (1.0 µg/mL, cat#40–0281, TONBO Biosciences) for 2 days, and then, the cells were further expanded under similar conditions for an additional 3 days. IL-2 conditions: IL-2 (10 ng/mL, Pepro Tech); Th2 conditions: IL-2 (10 ng/mL, Pepro Tech), IL-4 (1 ng/mL, Pepro Tech), and anti-IFN-γ mAb (2.5 µg/mL, cat#40–731, TONBO Biosciences). […]
The in vitro differentiated CD4^+ T cells were stimulated using an immobilized anti-TCR-β mAb (3 µg/ml, H57–597, BioLegend) for 6 h in the presence of monensin (2 µM). […] Flow cytometry was performed using a Gallios Flow Cytometer instrument (Beckman Coulter) and a FACS Caliber instrument (BD Biosciences) and the results were analysed using the FlowJo software program (Tree Star, Ashland, OR, USA).

Regarding `Cc1ccc(C)n1-c1ccsc1C(=O)O` [Pyrrothiogatain, 3-(2,5-dimethyl-1H-pyrrol-1-yl)thiophene-2-carboxylic acid], the “Generation of IL-4-, IL-5-, and IL-13-producing Th2 cells” value is “repressed”.
